Results as given in article PMC9848300, “Discovery of novel enasidenib analogues targeting inhibition of mutant isocitrate dehydrogenase 2 as antileukaemic agents” (Journal of Enzyme Inhibition and Medicinal Chemistry, 2023).

Key:
M14 = experiment: NCI 60 antitumor screening (single dose); format: cell-based; conditions: Homo sapiens; M14 (melanoma), single dose 10 μM; read-out: Growth inhibition percentage (GI %)
Method in brief: (§1)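 NCI-60 one-dose screen. Dose: 10 μM. Lines: 60 human tumour lines, nine tissue types. Output: GI% = 100 − G%.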

HS 578T = experiment: NCI 60 antitumor screening (single dose); format: cell-based; conditions: Homo sapiens; HS 578T (breast cancer), single dose 10 μM; read-out: Growth inhibition percentage (GI %)
Method in brief: as §1

TK-10 = experiment: NCI 60 antitumor screening (single dose); format: cell-based; conditions: Homo sapiens; TK-10 (renal cancer), single dose 10 μM; read-out: Growth inhibition percentage (GI %)
Method in brief: as §1

RPMI-8226 = experiment: NCI 60 antitumor screening (single dose / five doses); format: cell-based; conditions: Homo sapiens; RPMI-8226 (leukaemia), single dose 10 μM; read-out: Growth inhibition percentage (GI %)
UO-31 = experiment: as above; format: cell-based; conditions: Homo sapiens; UO-31 (renal cancer), single dose 10 μM; read-out: Growth inhibition percentage (GI %)
SF-539 = experiment: as above; format: cell-based; conditions: Homo sapiens; SF-539 (CNS cancer), single dose 10 μM; read-out: Growth inhibition percentage (GI %)
UACC-257 = experiment: as above; format: cell-based; conditions: Homo sapiens; UACC-257 (melanoma), single dose 10 μM; read-out: Growth inhibition percentage (GI %)
HOP-92 = experiment: as above; format: cell-based; conditions: Homo sapiens; HOP-92 (non-small cell lung cancer), single dose 10 μM; read-out: Growth inhibition percentage (GI %)
HCT-15 = experiment: as above; format: cell-based; conditions: Homo sapiens; HCT-15 (colon cancer), single dose 10 μM; read-out: Growth inhibition percentage (GI %)
HT29 = experiment: as above; format: cell-based, human; conditions: Homo sapiens, HT-29; HT29 (colon cancer), single dose 10 μM; read-out: Growth inhibition percentage (GI %)
MOLT-4 = experiment: as above; format: cell-based; conditions: Homo sapiens; MOLT-4 (leukaemia), single dose 10 μM; read-out: Growth inhibition percentage (GI %)
BT-549 = experiment: as above; format: cell-based; conditions: Homo sapiens; BT-549 (breast cancer), single dose 10 μM; read-out: Growth inhibition percentage (GI %)
[1] = system: 60 human subpanel cancer cell lines; experiment: NCI 60 antitumor screening, mean over the panel (single dose); format: cell-based; conditions: mean over 60 cancer cell lines, single dose 10 μM
Method in brief: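 Test compound added at 10 μM to each of 60 human cancer lines from nine tumour types; growth measured per NCI protocol in triplicate; percent growth converted to inhibition (100 − G%).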

LOX IMVI = experiment: NCI 60 antitumor screening (single dose / five doses); format: cell-based; conditions: Homo sapiens; LOX IMVI (melanoma), single dose 10 μM; read-out: Growth inhibition percentage (GI %)
K-562 = experiment: as above; format: cell-based; conditions: Homo sapiens, K562; K-562 (leukaemia), single dose 10 μM; read-out: Growth inhibition percentage (GI %)
MDA-MB-231/ATCC = experiment: as above; format: cell-based; conditions: Homo sapiens; MDA-MB-231/ATCC (breast cancer), single dose 10 μM; read-out: Growth inhibition percentage (GI %)
UACC-62 = experiment: as above; format: cell-based; conditions: Homo sapiens; UACC-62 (melanoma), single dose 10 μM; read-out: Growth inhibition percentage (GI %)
MDA-MB-435 = experiment: as above; format: cell-based; conditions: Homo sapiens; MDA-MB-435 (melanoma), single dose 10 μM; read-out: Growth inhibition percentage (GI %)
SNB-75 = experiment: as above; format: cell-based; conditions: Homo sapiens; SNB-75 (CNS cancer), single dose 10 μM; read-out: Growth inhibition percentage (GI %)
T-47D = experiment: as above; format: cell-based; conditions: Homo sapiens, T47D; T-47D (breast cancer), single dose 10 μM; read-out: Growth inhibition percentage (GI %)
HL-60(TB) = experiment: as above; format: cell-based; conditions: Homo sapiens; HL-60(TB) (leukaemia), single dose 10 μM; read-out: Growth inhibition percentage (GI %)
SR = experiment: as above; format: cell-based; conditions: Homo sapiens; SR (leukaemia), single dose 10 μM; read-out: Growth inhibition percentage (GI %)
CCRF-CEM = experiment: as above; format: cell-based; conditions: Homo sapiens; CCRF-CEM (leukaemia), single dose 10 μM; read-out: Growth inhibition percentage (GI %)
NCI/ADR-RES = experiment: as above; format: cell-based; conditions: Homo sapiens; NCI/ADR-RES (ovarian cancer), single dose 10 μM; read-out: Growth inhibition percentage (GI %)
HCT-116 = experiment: as above; format: cell-based; conditions: Homo sapiens; HCT-116 (colon cancer), single dose 10 μM; read-out: Growth inhibition percentage (GI %)
MALME-3M = experiment: as above; format: cell-based; conditions: Homo sapiens; MALME-3M (melanoma), single dose 10 μM; read-out: Growth inhibition percentage (GI %)
SN 12C = experiment: as above; format: cell-based; conditions: Homo sapiens, SN12C; SN 12C (renal cancer), single dose 10 μM; read-out: Growth inhibition percentage (GI %)
786-0 = experiment: as above; format: cell-based; conditions: Homo sapiens, 786-0, 786-0 (renal cancer), single dose 10 μM; read-out: Growth inhibition percentage (GI %)
ACHN = experiment: as above; format: cell-based; conditions: Homo sapiens; ACHN (renal cancer), single dose 10 μM; read-out: Growth inhibition percentage (GI %)

Structure (SMILES) | inhibition at 10 µM (M14) [%] | inhibition at 10 µM (HS 578T) [%] | inhibition at 10 µM (TK-10) [%] | inhibition at 10 µM (RPMI-8226) [%] | inhibition at 10 µM (UO-31) [%] | inhibition at 10 µM (SF-539) [%] | inhibition at 10 µM (UACC-257) [%] | inhibition at 10 µM (HOP-92) [%] | inhibition at 10 µM (HCT-15) [%] | inhibition at 10 µM (HT29) [%] | inhibition at 10 µM (MOLT-4) [%] | inhibition at 10 µM (BT-549) [%] | Mean GI % [1] [%] | inhibition at 10 µM (LOX IMVI) [%] | inhibition at 10 µM (K-562) [%] | inhibition at 10 µM (MDA-MB-231/ATCC) [%] | inhibition at 10 µM (UACC-62) [%] | inhibition at 10 µM (MDA-MB-435) [%] | inhibition at 10 µM (SNB-75) [%] | inhibition at 10 µM (T-47D) [%] | also measured
Oc1ccc(/C=N/Nc2nc(N/N=C/c3ccc(O)c(O)c3)nc(N3CCOCC3)n2)cc1O [compound 6j, 4-[(1e)-(2-{4-[(E)-2-[(3,4-Dihydroxyphenyl)methylidene]hydrazin-1-yl]-6-(morpholin-4-yl)-1,3,5-triazin-2-yl}hydrazin-1-ylidene)methyl]benzene-1,2-diol] | -4.69 | -5.42 | -9.62 | -3.09 | 15.4 | -3.18 | -3.12 | -7.35 | -2.93 | -12 | -1.68 | -9.12 | -2.12 | -5.85 | -5.6 | 1.27 | 2.19 | -3.12 | -1.54 | 7.67 | inhibition at 10 µM (HL-60(TB)): 0.38%; inhibition at 10 µM (SR): 8.3%; inhibition at 10 µM (CCRF-CEM): -2.09%; inhibition at 10 µM (NCI/ADR-RES): -5.32%; inhibition at 10 µM (HCT-116): -6.01%; inhibition at 10 µM (MALME-3M): -4.04%; inhibition at 10 µM (SN 12C): 0.16%; inhibition at 10 µM (786-0): -3.75%; inhibition at 10 µM (ACHN): -1.32%
C(=N\Nc1nc(N/N=C/c2ccc3c(c2)OCO3)nc(N2CCOCC2)n1)/c1ccc2c(c1)OCO2 [compound 6k, 2,4-Bis[(E)-2-(2H-1,3-Benzodioxol-5-ylmethylidene)hydrazin-1-yl]-6-(morpholin-4-yl)-1,3,5-triazine] | 5.09 | 16.7 | -3.24 | 40.3 | 46.4 | 18.2 | -2.23 | 8.47 | 41.5 | 51.7 | 47.3 | 5.57 | 20.69 | 30.1 | 45.6 | 0.11 | -4.28 | 4.07 | 13.4 | 23.8 | inhibition at 10 µM (HL-60(TB)): 61.1%; inhibition at 10 µM (SR): 85%; inhibition at 10 µM (CCRF-CEM): 41%; inhibition at 10 µM (NCI/ADR-RES): 23.3%; inhibition at 10 µM (HCT-116): 37.1%; inhibition at 10 µM (MALME-3M): -3.77%; inhibition at 10 µM (SN 12C): 24.1%; inhibition at 10 µM (786-0): 36.6%; inhibition at 10 µM (ACHN): 24.7%
Fc1cccc(Cl)c1/C=N/Nc1nc(N/N=C/c2c(F)cccc2Cl)nc(N2CCOCC2)n1 [compound 6l, 2,4-Bis[(E)-2-[(2-Chloro-6-fluorophenyl)methylidene]hydrazin-1-yl]-6-(morpholin-4-yl)-1,3,5-triazine] | 27.8 | 5 | -16.5 | 41.1 | 33.5 | 7.53 | 17 | 27 | 22.1 | 30.6 | 18.2 | -1.45 | 19.00 | 5.3 | 43 | 10.7 | 19.8 | 19.4 | 9.55 | 29.5 | inhibition at 10 µM (HL-60(TB)): 26.1%; inhibition at 10 µM (SR): 27.8%; inhibition at 10 µM (CCRF-CEM): 18.9%; inhibition at 10 µM (NCI/ADR-RES): 16.8%; inhibition at 10 µM (HCT-116): 16.4%; inhibition at 10 µM (MALME-3M): 16%; inhibition at 10 µM (SN 12C): 15.3%; inhibition at 10 µM (786-0): 3.32%; inhibition at 10 µM (ACHN): 7.67%
Brc1ccccc1/C=N/Nc1nc(N/N=C/c2ccccc2Br)nc(N2CCCCC2)n1 [compound 7b, 2,4-Bis[(E)-2-[(2-Bromophenyl)methylidene]hydrazin-1-yl]-6-(piperidin-1-yl)-1,3,5-triazine] | -4.12 | -5.25 | -16.5 | -0.33 | 7.3 | 2.62 | -8.22 | -33 | 1.2 | -1.89 | -12.3 | -5.26 | −0.12 | 1.94 | 4.67 | 2.05 | 12.2 | -1.23 | -2.35 | 11.2 | inhibition at 10 µM (HL-60(TB)): -3.87%; inhibition at 10 µM (SR): -1.34%; inhibition at 10 µM (CCRF-CEM): 0.06%; inhibition at 10 µM (NCI/ADR-RES): -2.41%; inhibition at 10 µM (HCT-116): -2.25%; inhibition at 10 µM (MALME-3M): -6.25%; inhibition at 10 µM (SN 12C): 5.69%; inhibition at 10 µM (786-0): 1.09%; inhibition at 10 µM (ACHN): 4.56%
Clc1cccc(/C=N/Nc2nc(N/N=C/c3cccc(Cl)c3)nc(N3CCCCC3)n2)c1 [compound 7d, 2,4-Bis[(E)-2-[(3-Chlorophenyl)methylidene]hydrazin-1-yl]-6-(piperidin-1-yl)-1,3,5-triazine] | 4.75 | -4.65 | -6.48 | 27.6 | 23.2 | -5.25 | -11.1 | -7.89 | 20.2 | 14.4 | 31.3 | 5.13 | 7.03 | -4.97 | 17 | -16.1 | 20.8 | 9.61 | -2.48 | 24 | inhibition at 10 µM (HL-60(TB)): 3.01%; inhibition at 10 µM (SR): 25.4%; inhibition at 10 µM (CCRF-CEM): 25%; inhibition at 10 µM (NCI/ADR-RES): 4.8%; inhibition at 10 µM (HCT-116): 2.75%; inhibition at 10 µM (MALME-3M): -9.06%; inhibition at 10 µM (SN 12C): 7.63%; inhibition at 10 µM (786-0): 4.76%; inhibition at 10 µM (ACHN): -1.44%
